In publication PMC9436819 (JACC: Basic to Translational Science, 2022):
Like-named read-outs stand apart in the source and are kept apart here.

Tests used:
healthy adults = test: Safety echocardiograms assessed by study cardiologist (AEs of decreased LVEF); assay type: in vivo, human; settings: for LVEF deemed AE (decreased ejection fraction <45%): study cardiologist
From the text: Recommendations regarding dose escalation in the SAD cohorts—and in the MAD cohorts described in the next section—were made by the treating investigator (who was blinded to treatment group) and endorsed or not by the Dose Level Review Committee (DLRC), the members of which were unblinded. […] Criteria for escalation included that no more than 2 participants in a dose group developed an LVEF of <50% and that no individual developed an LVEF of <45%; escalation criteria are given in full in the Supplemental Appendix. For safety monitoring, participants in all cohorts had periodic echocardiograms, which were assessed by a cardiologist. In the SAD and MAD cohorts, echocardiograms were also reviewed by an echocardiography core laboratory for PD assessments, as described in the section on echocardiographic methods. In addition, participants in all cohorts were monitored with continuous 12-lead ECG recording using Holter monitors. For safety monitoring, a single 12-lead ECG was extracted at screening, predose, and periodically throughout follow-up and interpreted by the investigator. In the SAD, MAD, and CYP2D6-PM cohorts, cardiodynamic ECGs (triplicate 10-second, 12-lead ECG recordings) were obtained before the corresponding PK blood sample (see the Supplemental Appendix for full details on blood sampling), and ECG intervals were quantitated by qualified readers.

[1] = Plasma pharmacokinetics after multiple oral doses (MAD cohorts); assay type: in vivo, human; settings: for AUC / Cmax / Tmax / half-life: human, plasma, oral; for AUC / Cmax: geometric mean (geometric CV%); for Tmax: median (range)
From the text: The MAD cohorts also used a randomized, double-blind, placebo-controlled, sequential design. […] For all study groups, blood samples for PK assessment were obtained predose, up to 12 times daily on day 1, and then at regular intervals throughout the study (see Supplemental Appendix for details). Standard noncompartmental methods were used to calculate PK parameters using Phoenix WinNonlin, version 7.0; actual sample collection times were used. […] Steady-state analysis In the M AD cohort, a steady- state an alysis for […] erfo rmed o n the ln-transformed plasma trough concentrat ion (Ctrough) values using Helmert contrasts. An analysis of variance (ANOVA) model was co nducted separately fo r each dose level; day w as in cluded as the fix ed effect. Helmert contrasts were d eveloped su ch that each time- point was compared with the mean of the subsequent time-points. Steady state was established at the time-point where no statistical differen ce (alpha = 5%, 2 -sided) was obs […] the subsequent time-points. 5

[2] = SAD 40 mg, one participant, 6 h after drug dose
[3] = SAD 50 mg, one participant, 4 h after drug dose
[4] = SAD 75 mg, single participant, 4 h after drug dose

In the case of CCc1nc(-c2ccc3c(c2)CC[C@H]3NC(=O)c2cnn(C)c2)no1 [Aficamten], the “Participants with echocardiogram-related AEs of decreased LVEF of <45%” value (healthy adults; 1 each in SAD 40-mg, 50-mg, and 75-mg cohorts) is reported as 3 participants, the “AEs of decreased ejection fraction of <45%” value (healthy adults; MAD, CYP2D6-PM, and food-effect cohorts) is reported as “no echocardiographic AEs” and the “Grade of AE of decreased ejection fraction” value (healthy adults; SAD 40 mg, one participant) is reported as 1 (mild). The “Onset of AE of decreased ejection fraction (time after drug dose)” value (healthy adults; SAD 40 mg, one participant) was 1.4 h, the “LVEF recorded at resolution of AE” value (healthy adults; [2]) was 58.4% and the “Time from onset to resolution of AE of decreased ejection fraction” value (healthy adults; [2]) was 4.6 h. The “LVEF deemed AE (decreased ejection fraction <45%)” value (healthy adults; SAD 40 mg, one participant) was 42.2%, the “Decrease in LVEF of 1 participant after cohort expansion” value (healthy adults; SAD 50 mg) was > 15% and the “LVEF of 1 participant after cohort expansion” value (healthy adults; SAD 50 mg) was < 45%. The “Postdose LVEF of 1 participant (<50%)” value (healthy adults; SAD 50 mg, initial cohort) was 46.2%, the “Grade of AE of decreased ejection fraction” value (healthy adults; SAD 50 mg, one participant) was 1 (mild) and the “Onset of AE of decreased ejection fraction (time after drug dose)” value (healthy adults; SAD 50 mg, one participant) was 1.5 h. The “LVEF recorded at resolution of AE” value (healthy adults; [3]) was 50.2%, the “Time from onset to resolution of AE of decreased ejection fraction” value (healthy adults; [3]) was 2.5 h and the “LVEF deemed AE (decreased ejection fraction <45%)” value (healthy adults; SAD 50 mg, one participant) was 42.1%. The “Postdose LVEF of the sentinel participant” value (healthy adults; SAD 75 mg) was < 45%, the “Reduction in LVEF of the single participant” value (healthy adults; SAD 75 mg, […] postdose) was 31.5% and the “Grade of AE of decreased ejection fraction” value (healthy adults; SAD 75 mg, single participant) was 1 (mild). The “Onset of AE of decreased ejection fraction (time after drug dose)” value (healthy adults; SAD 75 mg, single participant) was 1.5 h, the “LVEF recorded at resolution of AE” value (healthy adults; [4]) was 51.9% and the “Time from onset to resolution of AE of decreased ejection fraction” value (healthy adults; [4]) was 2.5 h. For the same molecule, the “LVEF deemed AE (decreased ejection fraction <45%)” value (healthy adults; SAD 75 mg, single participant, […] postdose) was 34.6%, the “Time to resolution of AEs of decreased LVEF (next echocardiogram assessment)” value (healthy adults; SAD 40, 50, 75 mg) was 2.5 to 4.6 h and the “Day by the end of which steady state was achieved” value (from here on “Day by the end”) ([1]; 5-mg dose once daily) was 12 days. The “Day by the end” value ([1]; 7.5-mg dose once daily) was 12 days, the “Day by the end” value ([1]; 10-mg dose once daily) was 10 days and the AUC ([1]; 5 mg, Day 1, 5 mg qd × 14 d, n = 6, read-out: AUC24) was 278 ng·h/mL. It also gave a Cmax ([1]; 5 mg, Day 1, 5 mg qd × 14 d, n = 6, read-out: Cmax) of 28 ng/mL, a Tmax ([1]; 5 mg, Day 1, 5 mg qd × 14 d, n = 6, read-out: Tmax) of 1.3 h and a half-life ([1]; 5 mg, Day 14, 5 mg qd × 14 d, arithmetic mean ± SD, n = 6, read-out: t½ (converted)) of 86.4 ± 11.9 h. It also gave an AUC ([1]; 5 mg, Day 14, 5 mg qd × 14 d, n = 6, read-out: AUCtau) of 1320 ng·h/mL, a Cmax ([1]; 5 mg, Day 14, 5 mg qd × 14 d, n = 6, read-out: Cmax,ss) of 69 ng/mL and a Tmax ([1]; 5 mg, Day 14, 5 mg qd × 14 d, n = 6, read-out: Tmax,ss) of 2.8 h. For the same molecule, the AUC ([1]; 7.5 mg, Day 1, 7.5 mg qd × 17 d, n = 6, read-out: AUC24) was 551 ng·h/mL, the Cmax ([1]; 7.5 mg, Day 1, 7.5 mg qd × 17 d, n = 6, read-out: Cmax) was 69.3 ng/mL and the Tmax ([1]; 7.5 mg, Day 1, 7.5 mg qd × 17 d, n = 6, read-out: Tmax) was 0.8 h. It also gave a half-life ([1]; 7.5 mg, Day 17, 7.5 mg qd × 17 d, arithmetic mean ± SD, n = 6, read-out: t½ (converted)) of 76.9 ± 14.5 h, an AUC ([1]; 7.5 mg, Day 17, 7.5 mg qd × 17 d, n = 6, read-out: AUCtau) of 2520 ng·h/mL and a Cmax ([1]; 7.5 mg, Day 17, 7.5 mg qd × 17 d, n = 6, read-out: Cmax,ss) of 148 ng/mL. For the same molecule, the Tmax ([1]; 7.5 mg, Day 17, 7.5 mg qd × 17 d, n = 6, read-out: Tmax,ss) was 1 h, the half-life ([1]; 10 mg, 5, 7.5, 10 mg once daily, read-out: Terminal elimination half-life, range across multiple-dose cohorts) was 77 to 86 h and the AUC ([1]; 10 mg, Day 1, 10 mg qd × 14 d, n = 6, read-out: AUC24) was 547 ng·h/mL. It also gave a Cmax ([1]; 10 mg, Day 1, 10 mg qd × 14 d, n = 6, read-out: Cmax) of 54.4 ng/mL, a Tmax ([1]; 10 mg, Day 1, 10 mg qd × 14 d, n = 6, read-out: Tmax) of 1 h and a half-life ([1]; 10 mg, Day 14, 10 mg qd × 14 d, arithmetic mean ± SD, n = 6, read-out: t½ (converted)) of 79.8 ± 14.1 h. It also gave an AUC ([1]; 10 mg, Day 14, 10 mg qd × 14 d, n = 6, read-out: AUCtau) of 2630 ng·h/mL, a Cmax ([1]; 10 mg, Day 14, 10 mg qd × 14 d, n = 6, read-out: Cmax,ss) of 141 ng/mL and a Tmax ([1]; 10 mg, Day 14, 10 mg qd × 14 d, n = 6, read-out: Tmax,ss) of 2.5 h. The “Attainment of steady state” value ([1]; once-daily dosing) was ≤ 2 weeks.
